US7811551B2, “Imaging agents” (GE Healthcare AS, priority 2003, dated 2010)
Starred links: 1 amine or outer side, 2 acyl side, 3 side chain; linkers in the order of their positions; H or OH if unused. Positions of bridges follow the written chain, without caps; N, C: chain ends. Residues, ends and D or L forms follow the SMILES beside them. *: point of attachment. X1 = O=C(COCC(=O)*)NCCOCCOCCOCCOCCOCCNC(=O)CSCCCF; CH2 = C([*:1])[*:2]

Target: T1, ανβ3 integrin receptor (Homo sapiens, UniProt P05106+P06756)
T1 construct: Using cell membrane preparations known to express the ανβ3 integrin receptor; endogenous in cells
Experiment: competitive binding with 125I-echistatin on cell membrane preparations
Details: cell membrane preparations expressing ανβ3 integrin receptor; 125I-echistatin as radioligand; Ki calculated using Prism software
Experimental: Using cell membrane preparations known to express the ανβ3 integrin receptor, competitive binding studies were carried out using ^125I-echistatin and the F-labelled peptides as competing ligand. Binding curves were obtained and Ki's calculated using Prism™ software.

With N=C(N)NCCC[C@@H]1NC(=O)[C@@H]2CSCSC[C@H](NC(=O)[C@H](CC(=O)O)NC(=O)CNC1=O)C(=O)N[C@@H](Cc1ccccc1)C(=O)N[C@H](C(N)=O)CSCC(=O)N[C@@H](CCCCNC(=O)COCC(=O)NCCOCCOCCOCCOCCOCCNC(=O)CSCCCF)C(=O)N2 [Example 1] ({CH2CO}-K(X1)CRGDCFC-NH2; linker 2-6 via CH2; thioether N-8) the Ki was 7 nM.
